Laboratory results reported in ChEMBL document CHEMBL1121815, “Chemically reactive estrogens: synthesis and estrogen receptor interactions of hexestrol ether derivatives and 4-substituted deoxyhexestrol derivatives bearing alkylating functions” (J Med Chem, 1981).

What was measured:
[1] = biological target: T1, Estrogen receptor (Ovis aries) (UniProt P49885+Q9TU15); assay: Inactivation of lamb uterine estrogen receptor; assay type: protein assay; design: concentration or dose not given beside the values
[2] = biological target: T1, Estrogen receptor (Ovis aries); assay: Binding affinity against estrogen receptor in lamb uterine cytosol, relative to that of [3H]estradiol; assay type: protein assay
[3] = Half life was determined; assay type: ADME; conditions: rat

Compound: CC[C@H](c1ccc(O)cc1)[C@@H](CC)c1ccc(OCC(O)CBr)cc1 (stereo partly drawn)
- Inactivation [1]: 36%
- Binding affinity [2]: 3.2%
- half-life [3]: 30 min

Compound: CC[C@H](c1ccc(O)cc1)[C@@H](CC)c1ccc(CO)cc1
- Binding affinity [2]: 40%

Compound: CC[C@H](c1ccc(O)cc1)[C@@H](CC)c1ccc(C(C)=O)cc1
- Binding affinity [2]: 4.1%

Compound: CC[C@H](c1ccc(O)cc1)[C@@H](CC)c1ccc(C(=O)CCl)cc1
- Inactivation [1]: 29%
- Binding affinity [2]: 0.44%
- half-life [3]: 30 min

Compound: CC[C@H](c1ccc(O)cc1)[C@@H](CC)c1ccc(OCC(O)CO)cc1 (stereo partly drawn)
- Binding affinity [2]: 6.9%

Compound: CCC(c1ccc(O)cc1)C(CC)c1ccc(OC)cc1 (stereo not drawn)
- Binding affinity [2]: 17%

Compound: C=CCOc1ccc([C@H](CC)[C@H](CC)c2ccc(O)cc2)cc1
- Binding affinity [2]: 5.4%

Compound: CC[C@H](c1ccc(O)cc1)[C@@H](CC)c1ccc([N+](=O)[O-])cc1
- Binding affinity [2]: 11%

Compound: CC[C@H](c1ccc(O)cc1)[C@@H](CC)c1ccc(S(=O)(=O)N=[N+]=[N-])cc1
- Binding affinity [2]: 1.8%

Compound: CC[C@H](c1ccc(O)cc1)[C@@H](CC)c1ccc(OCC(=O)CBr)cc1
- Inactivation [1]: 24%
- Binding affinity [2]: 9.5%
- half-life [3]: < 30 min

Compound: CC[C@H](c1ccc(O)cc1)[C@@H](CC)c1ccc(OCC2CO2)cc1 (stereo partly drawn)
- Inactivation [1]: 44%
- Binding affinity [2]: 7.4%
- half-life [3]: 240 min

Compound: CCOC(=N)c1ccc([C@H](CC)[C@H](CC)c2ccc(O)cc2)cc1
- Binding affinity [2]: 1.9%

Compound: CC[C@H](c1ccc(O)cc1)[C@@H](CC)c1ccc(CBr)cc1
- Inactivation [1]: 70%
- Binding affinity [2]: 9.3%
- half-life [3]: 150 min

Compound: CC[C@H](c1ccc(O)cc1)[C@@H](CC)c1ccc(N)cc1
- Binding affinity [2]: 95%

Compound: CC[C@H](c1ccc(O)cc1)[C@@H](CC)c1ccc(OC)cc1
- Binding affinity [2]: 19%

Compound: CC[C@H](c1ccc(O)cc1)[C@@H](CC)c1ccc(N=[N+]=[N-])cc1
- Binding affinity [2]: 5.7%

Compound: CC[C@H](c1ccc(O)cc1)[C@@H](CC)c1ccc(OCCOCCCl)cc1
- Binding affinity [2]: 0.9%

Compound: CC[C@H](c1ccc(O)c(CCCO)c1)[C@@H](CC)c1ccc(O)cc1
- Binding affinity [2]: 12%

Compound: CC[C@H](c1ccc(O)cc1)[C@@H](CC)c1ccc(OCC(=O)C=[N+]=[N-])cc1
- Binding affinity [2]: 2%

Compound: CC[C@H](c1ccc(O)cc1)[C@@H](CC)c1ccc(C#N)cc1
- Binding affinity [2]: 5.2%

Compound: CC[C@H](c1ccc(O)cc1)[C@@H](CC)c1ccc(C(=O)CBr)cc1
- Inactivation [1]: 44%
- Binding affinity [2]: 1.1%
- half-life [3]: < 30 min

Compound: CC[C@H](c1ccc(O)cc1)[C@@H](CC)c1ccc(OCC(=O)CCl)cc1
- Inactivation [1]: 31%
- Binding affinity [2]: 10%
- half-life [3]: 15 min

Compound: CC[C@H](c1ccc(O)cc1)[C@@H](CC)c1ccc(OCC(C)O)cc1 (stereo partly drawn)
- Binding affinity [2]: 4.3%

Compound: CC[C@H](c1ccc(O)cc1)[C@@H](CC)c1ccc(S(=O)(=O)F)cc1
- Inactivation [1]: 24%
- Binding affinity [2]: 0.33%
- half-life [3]: 60 min

Compound: C=CCc1cc([C@@H](CC)[C@@H](CC)c2ccc(O)cc2)ccc1O
- Binding affinity [2]: 54%

Compound: CC[C@H](c1ccc(O)cc1)[C@@H](CC)c1ccc(OCC(=O)O)cc1
- Binding affinity [2]: 0.12%

Compound: CC[C@H](c1ccc(O)cc1)[C@@H](CC)c1ccc(C(=O)O)cc1
- Binding affinity [2]: 1.8%

Compound: CC[C@H](c1ccc(O)cc1)[C@@H](CC)c1ccc(OCC(C)=O)cc1
- Binding affinity [2]: 11%

Compound: CCOCc1ccc([C@H](CC)[C@H](CC)c2ccc(O)cc2)cc1
- Binding affinity [2]: 4.9%

Compound: CCOC(=O)COc1ccc([C@H](CC)[C@H](CC)c2ccc(O)cc2)cc1
- Binding affinity [2]: 2.2%

Compound: CC[C@H](c1ccc(O)cc1)[C@@H](CC)c1ccc(CCl)cc1
- Inactivation [1]: 63%
- Binding affinity [2]: 8%
- half-life [3]: 78 min

Compound: CC[C@H](c1ccc(O)cc1)[C@@H](CC)c1ccc(OCC(O)CCl)cc1 (stereo partly drawn)
- Inactivation [1]: 24%
- Binding affinity [2]: 4%
- half-life [3]: 30 min

Compound: CC[C@H](c1ccc(O)cc1)[C@@H](CC)c1ccc(OCCO)cc1
- Binding affinity [2]: 21%
